Patent US8759532B2, “Pyridine and pyrimidine derivatives as phosphodiesterase 10 inhibitors” (AMGEN Inc., priority 2008, dated 2014)

Target: PDE10 (Mus musculus, UniProt Q8CA95)
Experiment: PDE10 enzyme inhibition, IMAP TR-FRET assay
Assay type: biochemical
Experimental: MPDE10A7 Enzyme Activity and Inhibition
An IMAP TR-FRET assay was used to analyze the enzyme activity (Molecular Devices Corp., Sunnyvale Calif.). 5 μL of serial diluted PDE10A (BPS Bioscience, San Diego, Calif.) or tissue homogenate was incubated with equal volumes of diluted fluorescein labeled cAMP or cGMP for 60 min in 384-well polystyrene assay plates (Corning, Corning, N.Y.) at room temperature. After incubation, the reaction was stopped by adding 60 μL of diluted binding reagents and was incubated for 3 hours to overnight at room temperature. The plates were read on an Envision (Perkin Elmer, Waltham, Mass.) for time resolved fluorescence resonance energy transfer. The data were analyzed with GraphPad Prism (La Jolla, Calif.).
To check the inhibition profile, 5 μL of serial diluted compounds were incubated with 5 μL of diluted PDE10 enzyme (BPS Bioscience, San Diego, Calif.) or tissue homogenate in a 384-well polystyrene assay plate (Corning, Corning, N.Y.) for 30 min at room temperature. After incubation, 10 μL of diluted fluorescein labeled cAMP or cGMP substrate were added and incubated for 60 min at room temperature. The reaction was stopped by adding 60 μL of diluted binding reagents and plates were read on an Envision (Perkin Elmer, Waltham, Mass.) for time resolved fluorescence resonance energy transfer. The data were analyzed with GraphPad Prism (La Jolla, Calif.).
The tabulated IC50 data represent an average IC50 data for each compound.

Chain of PDE10 (Q8CA95 whole entry, looked up): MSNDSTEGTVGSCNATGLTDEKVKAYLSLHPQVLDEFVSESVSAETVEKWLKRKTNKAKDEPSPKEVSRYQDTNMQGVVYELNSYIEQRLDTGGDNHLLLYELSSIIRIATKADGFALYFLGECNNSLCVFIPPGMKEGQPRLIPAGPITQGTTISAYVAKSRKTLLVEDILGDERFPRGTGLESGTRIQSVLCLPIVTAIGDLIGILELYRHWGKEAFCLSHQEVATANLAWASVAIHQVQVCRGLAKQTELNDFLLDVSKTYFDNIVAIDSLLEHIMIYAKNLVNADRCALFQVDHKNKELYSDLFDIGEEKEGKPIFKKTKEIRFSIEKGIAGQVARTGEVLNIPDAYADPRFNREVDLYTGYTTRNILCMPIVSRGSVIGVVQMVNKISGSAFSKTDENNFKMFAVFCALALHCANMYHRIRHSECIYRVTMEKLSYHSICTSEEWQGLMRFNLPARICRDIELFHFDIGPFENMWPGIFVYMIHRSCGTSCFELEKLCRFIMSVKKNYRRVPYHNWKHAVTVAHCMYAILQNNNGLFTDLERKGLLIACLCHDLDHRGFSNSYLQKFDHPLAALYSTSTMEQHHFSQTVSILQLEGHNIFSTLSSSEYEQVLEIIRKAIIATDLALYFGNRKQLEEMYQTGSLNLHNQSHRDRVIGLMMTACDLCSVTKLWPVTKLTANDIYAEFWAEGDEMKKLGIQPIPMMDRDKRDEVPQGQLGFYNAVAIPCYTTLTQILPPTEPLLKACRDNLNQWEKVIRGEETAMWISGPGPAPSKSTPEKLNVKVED

In the case of FC(F)(F)c1cc(-c2cccnc2Oc2ccc(Cc3nc4ccccc4[nH]3)cc2)ccn1 [Example 62, 2-(4-(2′-(trifluoromethyl)-3,4′-bipyriidn-2-yloxy)benzyl)-1H-benzo[d]imidazole], the IC50 (IC50 class against PDE10, Table IA) is reported as 0.1 to 0.25 µM.
In the case of COc1cnccc1-c1cccnc1Oc1ccc(Nc2nc3ccccc3s2)cc1 [Example 165, N-(4-(3′-methoxy-3,4′-bipyriidn-2-yloxy)phenyl)benzo[d]thiazol-2-amine], the IC50 (IC50 class against PDE10, Table IIA) is reported as less than 0.025 µM.
With “(R)-4-(2-(4-(1H-benzo[d]imidazole-2-carbonyl)phenoxy)pyridin-3-yl)-1-methylpyrrolidin-2-one and (S)-4-(2-(4-(1H-benzo[d]imidazole-2-carbonyl)phenoxy)pyridin-3-yl)-1-methylpyrrolidin-2-one [Example 209]” the IC50 (IC50 class against PDE10, printed at end of example text) was less than 0.025 µM.
